Here are results for nine compounds from patent US20220289715A1, “PESTICIDALLY ACTIVE PYRAZINE-AMIDE COMPOUNDS” (priority 2019, published 2022).

Series [1] deals with Diabrotica balteata (Corn Root Worm). As to the kind of experiment: Example B1: Diabrotica balteata, spray on maize sprouts. It is filed as in vivo. The note with it: 96 h, application rate of 200 ppm, L2 larvae, 4 days after infestation, read-out: control in at least one of the two categories (mortality or growth inhibition). An outline of the steps: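 Maize sprouts on agar were sprayed with aqueous dilutions of DMSO stock solutions, dried, then infested with L2 larvae (6–10 per well). Mortality and growth inhibition were scored against untreated controls 4 days after infestation; test rate 200 ppm.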

The subject of series [2] is Chilo suppressalis (Striped Rice Stemborer). As to the kind of experiment: Example B3: Chilo suppressalis, artificial diet. It is filed as in vivo. The following applies: 144 h, application rate of 200 ppm, L2 larvae, 6 days after infestation, read-out: control in at least one of the three categories (mortality, anti-feedant effect, or growth inhibition). An outline of the steps: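 Artificial diet was treated with aqueous dilutions made from 10,000 ppm DMSO stocks, dried, and infested with L2 larvae (6-8 per well). After 6 days, mortality, anti-feeding effect and growth inhibition were scored against untreated samples. Control was recorded when any one category exceeded the untreated sample.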

For series [3], the system named is Plutella xylostella (Diamond Back Moth). As to the kind of experiment: Example B4: Plutella xylostella, artificial diet, 24-well. The class given is in vivo. The note with it: 192 h, application rate of 200 ppm, eggs, 8 days after infestation, read-out: control in at least one of the two categories (mortality or growth inhibition). An outline of the steps: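 Artificial diet in 24-well plates treated with aqueous dilutions of DMSO stocks, dried, then infested with diamondback moth eggs. Mortality and growth inhibition scored against untreated samples 8 days after infestation.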

In series [4] the test system is Spodoptera littoralis (Egyptian Cotton Leaf Worm). The experiment in a line: Example B6: Spodoptera littoralis, spray on cotton leaf discs. It is filed as in vivo. The note with it: foliar, 72 h, application rate of 200 ppm, L1 larvae, 3 days after infestation, read-out: control in at least one of the three categories (mortality, anti-feedant effect, or growth inhibition). In outline: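 Leaf discs on agar sprayed with aqueous solutions made from 10,000 ppm DMSO stocks, then infested after drying with five L1 larvae. Mortality, anti-feeding and growth inhibition scored against untreated samples 3 days after infestation.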

Series [5] relates to Tetranychus urticae (Two-Spotted Spider Mite). As to the kind of experiment: Example B8: Tetranychus urticae, feeding/contact activity. The note with it: 192 h. The class given is in vivo. The procedure:
Example B8: Tetranychus urticae (Two-Spotted Spider Mite): Feeding/Contact Activity
Bean leaf discs on agar in 24-well microtiter plates were sprayed with aqueous test solutions prepared from 10,000 ppm DMSO stock solutions. After drying the leaf discs were infested with a mite population of mixed ages. The samples were assessed for mortality on mixed population (mobile stages) 8 days after infestation.

In series [6] the test system is Plutella xylostella (Diamondback Moth). As to the kind of experiment: Example B9: Plutella xylostella, artificial diet, 96-well. The class given is in vivo. The note with it: 216 h, application rate of 500 ppm, eggs/L1 larvae, 9 days after infestation. An outline of the steps:
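Test solutions made from 10,000 ppm DMSO stocks were applied to artificial diet in 96-well plates. After drying, ~30 eggs per well were placed on a suspended netted lid so hatching L1 larvae dropped onto the diet. Mortality was scored 9 days after infestation.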

In series [7] the test system is Myzus persicae (Green Peach Aphid). As to the kind of experiment: Example B10: Myzus persicae, sucrose solution, 96-well. It is filed as in vivo. The note with it: 120 h, application rate of 50 ppm, 5 days after infestation. The source says: Example B10: Myzus persicae (Green Peach Aphid)
Test compounds prepared from 10,000 ppm DMSO stock solutions were applied by a liquid handling robot into 96-well microtiter plates and mixed with a sucrose solution. Parafilm was stretched over the 96-well microtiter plate and a plastic stencil with 96 holes was placed onto the plate. Aphids were sieved into the wells directly onto the Parafilm. The infested plates were closed with a gel blotting card and a second plastic stencil and then turned upside down. The samples were assessed for mortality 5 days after infestation.

Series [8] concerns Euschistus heros (Neotropical Brown Stink Bug). As to the kind of experiment: Example B2: Euschistus heros, spray on soybean leaves. It is filed as in vivo. The following applies: 120 h, application rate of 200 ppm, N2 nymphs, 5 days after infestation, read-out: control in at least one of the two categories (mortality or growth inhibition). How it is done:
Example B2: Euschistus heros (Neotropical Brown Stink Bug)
Soybean leaves on agar in 24-well microtiter plates were sprayed with aqueous test solutions prepared from 10,000 ppm DMSO stock solutions. After drying the leaves were infested with N2 nymphs. The samples were assessed for mortality and growth inhibition in comparison to untreated samples 5 days after infestation.
The following compounds gave an effect of at least 80% control in at least one of the two categories (mortality or growth inhibition) at an application rate of 200 ppm: […]

Series [9] concerns Myzus persicae (Green Peach Aphid). As to the kind of experiment: Example B5: Myzus persicae, intrinsic activity. The note with it: 120 h, test rate of 12 ppm, 5 days after infestation. It is filed as in vivo. The source says: Example B5: Myzus persicae (Green Peach Aphid). Intrinsic Activity
Test compounds prepared from 10,000 ppm DMSO stock solutions were applied by pipette into 24-well microtiter plates and mixed with sucrose solution. The plates were closed with a stretched Parafilm. A plastic stencil with 24 holes was placed onto the plate and infested pea seedlings were placed directly on the Parafilm. The infested plate was closed with a gel blotting paper and another plastic stencil and then turned upside down. The samples were assessed for mortality 5 days after infestation.

For series [10], the system named is Spodoptera littoralis (Egyptian Cotton Leaf Worm). As to the kind of experiment: Example B7: Spodoptera littoralis, uptake by lettuce roots from agar. The class given is in vivo. The following applies: 144 h, test rate of 12.5 ppm, absorbed by lettuce roots, eggs, 6 days after infestation, read-out: control in at least one of the three categories (mortality, anti-feeding, or growth inhibition). The source says:
Example B7: Spodoptera littoralis (Egyptian Cotton Leaf Worm)
Test compounds were applied by pipette from 10,000 ppm DMSO stock solutions into 24-well plates and mixed with agar. Lettuce seeds were placed onto the agar and the multi well plate was closed by another plate which contained also agar. After 7 days the compound was absorbed by the roots and the lettuce grew into the lid plate. The lettuce leaves were then cut off into the lid plate. Spodoptera eggs were pipetted through a plastic stencil onto a humid gel blotting paper and the lid plate was closed with it. The samples were assessed for mortality, anti-feedant effect and growth inhibition in comparison to untreated samples 6 days after infestation.
The following compounds gave an effect of at least 80% control in at least one of the three categories (mortality, anti-feeding, or growth inhibition) at a test rate of 12.5 ppm: […]

The structures appear in SMILES notation.

On to `CC(NC(=O)c1cc(Cl)cc(Br)c1)c1nccnc1-n1nccn1` (stereo not drawn) [Compound P35, 3-bromo-5-chloro-N-[1-[3-(triazol-2-yl)pyrazin-2-yl]ethyl]benzamide], for which the percent control (mortality or growth inhibition) at 200 ppm in series [1] and in series [3] was at least 80% throughout. Also, the percent control (mortality, anti-feedant effect or growth inhibition) at 200 ppm in series [2] and in [4] was at least 80% each time. The mortality – broadly, the percentage killed – at 200 ppm in series [5] is at least 80%. In [6], this compound showed a mortality at 500 ppm of at least 80%. Moreover, the mortality at 50 ppm in series [7] was at least 80%.

In the case of `CC(NC(=O)c1cc(C(F)F)cc(C(F)(F)F)c1)c1nccnc1-n1nccn1` (stereo not drawn) [Compound P3, 3-(difluoromethyl)-N-[1-[3-(triazol-2-yl)pyrazin-2-yl]ethyl]-5-(trifluoromethyl)benzamide], the percent control (mortality or growth inhibition) at 200 ppm in series [1], in [8] and in series [3] was at least 80% in each case. Moreover, the percent control (mortality, anti-feedant effect or growth inhibition) at 200 ppm in [2] and in series [4] was at least 80% throughout. In series [9], this compound gave a mortality at 12 ppm of at least 80%. For the same compound, in series [6], the mortality at 500 ppm is at least 80%. In addition, in series [7], the mortality at 50 ppm is at least 80%.

`CC(NC(=O)c1cc(C(F)(F)F)cc(C(C)(C)C#N)c1)c1nccnc1-n1nccn1` (stereo not drawn) [Compound P6, 3-(1-cyano-1-methyl-ethyl)-N-[1-[3-(triazol-2-yl)pyrazin-2-yl]ethyl]-5-(trifluoromethyl)benzamide]: the percent control (mortality or growth inhibition) at 200 ppm in series [1], in [8] and in series [3] was at least 80% throughout. Besides, the percent control (mortality, anti-feedant effect or growth inhibition) at 200 ppm in series [2] and in [4] was at least 80% each time. The compound further returned a mortality at 12 ppm in series [9] of at least 80%. For the same compound, in series [6], the mortality at 500 ppm was at least 80%. Further, the mortality at 50 ppm in series [7] is at least 80%.

Take `C[C@H](NC(=O)c1cc(OC(F)F)cc(C(F)(F)F)c1)c1nccnc1-n1nccn1` [Compound P39, 3-(difluoromethoxy)-N-[(1S)-1-[3-(triazol-2-yl)pyrazin-2-yl]ethyl]-5-(trifluoromethyl)benzamide]: the percent control (mortality or growth inhibition) at 200 ppm in [1], in [8] and in series [3] was at least 80% throughout. In addition, the percent control (mortality, anti-feedant effect or growth inhibition) at 200 ppm in series [2] and in series [4] was at least 80% each time. In [9], this compound gave a mortality at 12 ppm of at least 80%. In [10], the percent control (mortality, anti-feeding or growth inhibition) at 12.5 ppm is at least 80%.

With `CC(NC(=O)c1cc(C(F)(F)F)cc(S(=O)(=O)C2CC2)c1)c1nccnc1-n1nccn1` (stereo not drawn) [Compound P40, 3-cyclopropylsulfonyl-N-[1-[3-(triazol-2-yl)pyrazin-2-yl]ethyl]-5-(trifluoromethyl)benzamide], the percent control (mortality, anti-feedant effect or growth inhibition) at 200 ppm in [2] and in series [4] was at least 80% in each case. The percent control (mortality or growth inhibition) at 200 ppm in series [3] was at least 80%. In addition, in series [9], the mortality at 12 ppm is at least 80%. Moreover, the mortality at 500 ppm in series [6] is at least 80%. This compound also returned a mortality at 50 ppm in [7] of at least 80%.

On to `CC(NC(=O)c1cc(OCC(F)F)cc(C(F)(F)F)c1)c1nccnc1-n1nccn1` (stereo not drawn) [Compound P12, 3-(2,2-difluoroethoxy)-N-[1-[3-(triazol-2-yl)pyrazin-2-yl]ethyl]-5-(trifluoromethyl)benzamide], for which the percent control (mortality or growth inhibition) at 200 ppm in [8] and in [3] was at least 80% each time. The percent control (mortality, anti-feedant effect or growth inhibition) at 200 ppm in series [2] and in series [4] was at least 80% throughout. The compound further came in with a mortality at 12 ppm in series [9] of at least 80%. The percent control (mortality, anti-feeding or growth inhibition) at 12.5 ppm in series [10] is at least 80%. This compound returned a mortality at 500 ppm in [6] of at least 80%. This compound also registered a mortality at 50 ppm in series [7] of at least 80%.

In the case of `CC(NC(=O)c1cc(C(F)(F)F)cc(C2(C#N)CC2)c1)c1nccnc1-n1nccn1` (stereo not drawn) [Compound P16, 3-(1-cyanocyclopropyl)-N-[1-[3-(triazol-2-yl)pyrazin-2-yl]ethyl]-5-(trifluoromethyl)benzamide], the percent control (mortality or growth inhibition) at 200 ppm in series [1], in [8] and in [3] was at least 80% in each case. For the same compound, the percent control (mortality, anti-feedant effect or growth inhibition) at 200 ppm in series [2] and in series [4] was at least 80% in each case. This compound returned a mortality at 12 ppm in series [9] of at least 80%. The compound also came in with a mortality at 500 ppm in series [6] of at least 80%. Further, in series [7], the mortality at 50 ppm is at least 80%.

Take `Cc1cc(F)cc(C(=O)NC(C)c2nccnc2-n2nccn2)c1` (stereo not drawn) [Compound P37, 3-fluoro-5-methyl-N-[1-[3-(triazol-2-yl)pyrazin-2-yl]ethyl]benzamide]: the melting point (usually the temperature, or range, at which the solid turns liquid) fell in the range of 154 to 155 °C.

The compound `CCOc1cc(C(=O)NC(C)c2nccnc2-n2nccn2)cc(Cl)n1` (stereo not drawn) [Compound P21, 2-chloro-6-ethoxy-N-[1-[3-(triazol-2-yl)pyrazin-2-yl]ethyl]pyridine-4-carboxamide] returned a melting point of 129 to 130 °C.
